According to publication PMC4730229, “Benzobisthiazoles Represent a Novel Scaffold for Kinase Inhibitors of CLK Family Members” (Biochemistry, 2015):

Tests used:
Assay type in all cases: biochemical
[1] = biological target: T1, GST-CLK2cd (CLK2 catalytic domain) (Homo sapiens, UniProt P49760); experiment: High-throughput screen, Kinase-Glo in vitro kinase assay; settings: compound at 10 μM; read-out: percentage of inhibition on CLK2 (primary screen)
T1 construct: cDNA encoding the CLK2 catalytic domain (CLK2cd, amino acids 140–496); made in house; host or cells: Escherichia coli BL21(DE3)-R3-lambda-PPase
T1 sequence (P49760 140-496): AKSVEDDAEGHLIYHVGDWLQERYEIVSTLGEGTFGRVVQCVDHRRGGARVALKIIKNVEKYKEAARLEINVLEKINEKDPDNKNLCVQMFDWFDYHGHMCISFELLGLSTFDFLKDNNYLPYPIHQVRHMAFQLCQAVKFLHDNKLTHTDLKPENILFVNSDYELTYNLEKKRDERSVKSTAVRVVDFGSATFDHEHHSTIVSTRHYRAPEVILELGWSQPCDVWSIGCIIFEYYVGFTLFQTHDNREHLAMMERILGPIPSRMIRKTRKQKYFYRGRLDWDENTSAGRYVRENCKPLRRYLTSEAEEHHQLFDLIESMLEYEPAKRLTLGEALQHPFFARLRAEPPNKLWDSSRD
Protocol: A small molecule inhibitor library consisting of 1600 compounds was obtained from LIFE Chemicals (Kiev, Ukraine). These compounds are part of the CUTE kinase collection that was predicted by in silico profiling against a panel of targets and includes potent kinase inhibitor compounds.[16] Compounds were dissolved as 10 mM stocks in DMSO and stored at room temperature, in the presence of 5% humidity and 5% oxygen in the dark in a Roylan Storage Pod system. Compounds were dispensed into white 384-well plates using the Labcyte Echo520 instrument at a final concentration of 10 μM. Next, 5 μL of 144.92 nM purified GST-CLK2cd in kinase assay buffer A was added to the compounds, incubated for 10 min at room temperature prior to addition of 5 μL of a 2 μM ATP/10 μM S6K peptide mixture, and incubated again for 60 min at room temperature. Subsequently, 10 μL of Kinase-Glo was added to the wells, and the plates were analyzed after 10 min on the Envision II multilabel plate reader (PerkinElmer). […] The percentage of inhibition is equal to 100 – [(total ATP before assay – remaining ATP in assay with compound)/(total ATP before assay – remaining ATP in assay with DMSO) × 100].

firefly luciferase = experiment: Luciferase inhibition assay (Kinase-Glo, no kinase); settings: compound at 10 μM
Protocol: For analysis of luciferase inhibition, 10 μL of luciferase reagent (Kinase-Glo, Promega) was added to 10 μL of a mixture consisting of 1 μM ATP and 5 μM S6K and 10 μM compound (potential kinase inhibitor) in buffer A in the absence of kinase and incubated for 10 min at room temperature in a white well plate before the luminescence was read. The percentage of inhibition is equal to (luminescence in the assay without compound – luminescence in the assay with compound)/(luminescence in the assay without compound) × 100.

CLK3 = biological target: T2, CLK3 (Homo sapiens, UniProt P49761); experiment: Kinase inhibition assay, IC50
T2 construct: The catalytic domains of CLK1, CLK2, CLK3, CLK2K193A, and CLK2K193A/D290A were tagged with GST; GST (N); made in house
T2 sequence (P49761 156-472 limits assumed): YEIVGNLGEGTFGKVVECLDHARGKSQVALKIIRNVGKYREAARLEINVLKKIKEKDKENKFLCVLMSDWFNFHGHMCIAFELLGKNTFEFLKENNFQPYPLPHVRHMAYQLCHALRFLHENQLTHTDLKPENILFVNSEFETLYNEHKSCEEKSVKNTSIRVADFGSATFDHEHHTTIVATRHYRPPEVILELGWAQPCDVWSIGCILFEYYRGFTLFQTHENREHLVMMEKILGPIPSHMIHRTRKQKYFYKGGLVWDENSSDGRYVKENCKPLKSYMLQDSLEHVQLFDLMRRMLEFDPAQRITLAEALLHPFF

CLK2 = CLK2 (Homo sapiens, UniProt P49760); experiment: Kinase inhibition assay, IC50; design: cDNA encoding the CLK2 catalytic domain (CLK2cd, amino acids 140–496); made in house; host or cells: Escherichia coli BL21(DE3)-R3-lambda-PPase; settings: relative to 3A5
Sequence of CLK2 (P49760 140-496): as the sequence (P49760 140-496) above

Structure (SMILES): O=C(NCCO)c1ccc(Nc2nc(-c3ccccc3)c3cc(Cl)ccc3n2)cc1 [4B9]
- inhibition at 10 µM [1]: 56%
- % inhibition of luciferase (firefly luciferase): 20.4 ± 1.6%

Structure (SMILES): COc1cc(C(=O)Nc2nc3ccc(S(=O)(=O)N4CCCCC4)cc3s2)cc(OC)c1OC [7C4]
- inhibition at 10 µM [1]: 53%
- % inhibition of luciferase (firefly luciferase): 19.6 ± 3.6%

Structure (SMILES): O=C(O)c1ccc(C(=O)Nc2ccccc2-c2nc3ccccc3[nH]2)cc1 [9C6]
- inhibition at 10 µM [1]: 58%
- % inhibition of luciferase (firefly luciferase): 5.6 ± 4.0%

Structure (SMILES): COc1ccccc1C(=O)Nc1nc2ncccc2cc1-c1ccccc1 [17F6]
- inhibition at 10 µM [1]: 53%
- % inhibition of luciferase (firefly luciferase): 21.9 ± 0.2%

Structure (SMILES): Cc1nc2c(ccc3nc(NC(=O)c4cccs4)sc32)s1 [4G9]
- inhibition at 10 µM [1]: 50%
- % inhibition of luciferase (firefly luciferase): 47.8 ± 2.1%

Structure (SMILES): O=C(Nc1cccc(-c2nc3ccccc3[nH]2)c1)c1ccc2ncsc2c1 [3B5]
- inhibition at 10 µM [1]: 65%
- % inhibition of luciferase (firefly luciferase): 26 ± 1.1%

Structure (SMILES): O=C1N=C(NCc2cccs2)S/C1=C\c1ccc2ncccc2c1 [NR9, (5Z)-5-(quinolin-6-ylmethylidene)-2-[(thiophen-2-ylmethyl)amino]-1,3-thiazol-4(5H)-one]
- IC50 (CLK3): > 3 µM

Structure (SMILES): CC1(C)Cc2cccc(OCC(=O)Nc3cccc(-c4cc[nH]n4)c3)c2O1 [18B6]
- inhibition at 10 µM [1]: 58%
- % inhibition of luciferase (firefly luciferase): 17.5 ± 2.2%

Structure (SMILES): Fc1ccc(-c2csc3ncnc(NCc4ccccc4)c23)cc1 [5E11]
- inhibition at 10 µM [1]: 58%
- % inhibition of luciferase (firefly luciferase): 26.4 ± 2.4%

Structure (SMILES): COc1ccc(Cc2cnc(NC(=O)c3cc(C)oc3C)s2)cc1 [13D3]
- inhibition at 10 µM [1]: 51%
- % inhibition of luciferase (firefly luciferase): 0 ± 2.4%

Structure (SMILES): CC(=O)Nc1nc2cc3c(cc2s1)OCO3 [8A6]
- inhibition at 10 µM [1]: 53%
- % inhibition of luciferase (firefly luciferase): 18.8 ± 1.6%

Structure (SMILES): CC(=O)Nc1ccc(-c2nc3c(Cl)cccc3[nH]2)cc1 [2A4]
- inhibition at 10 µM [1]: 51%
- % inhibition of luciferase (firefly luciferase): 17.5 ± 4.5%

Structure (SMILES): O=C(Nc1cccc(-c2nc3ccccc3[nH]2)c1)c1ccc2nsnc2c1 [18H3]
- inhibition at 10 µM [1]: 56%
- % inhibition of luciferase (firefly luciferase): 21.1 ± 2.2%

Structure (SMILES): CSc1nc2ccc3nc(NC(=O)c4ccc(S(=O)(=O)N5CCOCC5)cc4)sc3c2s1 [5F4]
- inhibition at 10 µM [1]: 55%
- % inhibition of luciferase (firefly luciferase): 23.6 ± 1.5%
- decrease of inhibition against CLK2 compared to 3A5 (CLK2): 2–3 fold

Structure (SMILES): O=C(Nc1nc2c(s1)CCCC2)C1CC1 [1C11]
- inhibition at 10 µM [1]: 50%
- % inhibition of luciferase (firefly luciferase): 8.1 ± 1.8%

Structure (SMILES): CCN1/C(=C/C(C)=O)Sc2ccc(OC)cc21 [TG003, reference compound]
- inhibition at 10 µM [1]: 63%
- % inhibition of luciferase (firefly luciferase): 13.4 ± 1.8%

Structure (SMILES): COCCNC(=O)c1cccc(Nc2nc(-c3ccccc3)c3cc(Cl)ccc3n2)c1 [8B5]
- inhibition at 10 µM [1]: 52%
- % inhibition of luciferase (firefly luciferase): 0 ± 6.2%
